Results taken from paper PMC10224004, “Modulation of Distribution and Diffusion through the Lipophilic Membrane with Cyclodextrins Exemplified by a Model Pyridinecarboxamide Derivative” (Pharmaceutics, 2023).

Tests used:
[1] = Shake-flask solubility in n-hexane and dissolution thermodynamics; format: physicochemical; settings: for Molar solubility S2 × 10^3 in n-Hexane: value = S2 × 10^3
Experimental: The solubility of the investigated drugs in 1-octanol and n-hexane was determined by the shake-flask technique. To this end, the glass vials containing the solutions with the excess amount of the compound were placed in an air thermostat and stirred at a predetermined temperature for no less than 24 h (equilibrium state). After this, the suspensions were left for 5 h or more to precipitate the undissolved drug and centrifuged (Biofuge pico, Thermo Electron LED GmbH, Langenselbold, Germany) at a predetermined temperature during 20 min (10,000 rpm). The aliquots of the clear solutions were taken and examined via a spectrophotometer (Cary-50 Varian, Palo Alto, CA, USA, Software Version 3.00 (339)). The molar concentrations of the compounds in the solvents were calculated using calibration curves at the appropriate wavelength characteristic for each substance. The experimental results were reported as an average of at least three replicated experiments with an accuracy of 2–4%. In order to evaluate the thermodynamic parameters of the IPN dissolution in 1-octanol and n-hexane, the molar solubility ( S2 ) was recalculated to the mole fraction ( X2 ) by the equation:(1) X2=M2S2/S2(M1−M2)+1000ρ, where M1 and M2 are the molar masses of IPN and organic solvent, respectively, and ρ (g∙cm^−3) is the density of the pure solvents. The linear functions describing the temperature dependences of the solubility within the temperature interval from 293.2 ± 0.5 K to 313.2 ± 0.5 K for both organic solvents were derived:(2) lnX2=A+B/T
The apparent solution enthalpies ΔHsol0 were determined by the van’t Hoff equation:(3) ∂(lnX2)/∂T=ΔHsol0/RT^2
The apparent dissolution Gibbs energies ( ΔGsol ) and entropies ( ΔSsol ) were calculated at a standard temperature of 298.2 K and 310.2 K:(4) ΔGsol298.2/310.2=−RT(lnX2298.2/310.2) (5) ΔGsol298.2/310.2=ΔHsol0−TΔSsol298.2/310.2 where R is the universal gas constant.

[2] = Association constant of IPN with cyclodextrin by phase-distribution method; format: binding; settings: 310.2 K
Experimental: The association constants (KC) of IPN with cyclodextrins were determined by a partition coefficient (phase-distribution) method. Possible partition of CDs to the 1-octanol or n-hexane phases was assumed to be negligible since both cyclodextrins used in this study have high aqueous solubility (>600 mg∙mL^−1). The KC values of the complexes between the drug and each CD were calculated assuming that in the presence of CD the distribution coefficient ( DappOrg/(buf+CD) ) is defined as:(8) DappOrg/(buf+CD)=C2Org/C2buf(drug)+C2buf(drug•CD) where C2buf(drug) and C2buf(drug•CD) are the concentrations of the drug and drug complex with CD in the aqueous phase. The following equation was applied:(9) DappOrg/(buf+CD)/DappOrg/buf=1+KC⋅CCD where DappOrg/buf and DappOrg/(buf+CD) are the distribution coefficients of a compound in the absence and in the presence of CD in the aqueous phase, respectively. Similarly to the phase-solubility method of the stability constants determination, but bearing in mind an opposite trends in solubility and organic solvent/water partition (the higher the solubility, the lower the distribution coefficient), the following dependence was plotted to obtain the association constant (KC) and the stoichiometric ratio of the complex (α):(10) log(DappOrg/buf−DappOrg/(buf+CD)/DappOrg/buf)=log(KC)+α⋅log(CCD) where CCD is the concentration of cyclodextrin in the aqueous phase of the distribution system and the y-intercept produces log(KC).
To approve the validity of the distribution results interpretation we used the distribution coefficients at different CDs concentrations for the determination of the association constants of IPN with the studied cyclodextrins. As shown by Másson et al. for hydrophilic drugs (a case of IPN), this method can be successfully used for the simultaneous determination of the association constant with cyclodextrins and partition coefficient. The association constants (KC) of IPN with HP-β-CD and M-β-CD were determined according to the phase-distribution method using Equations (8)–(10). To this end, the plots of the dependences (Equation (10)) were constructed and are illustrated in Figure 6.

[3] = Shake-flask solubility in 1-octanol and dissolution thermodynamics; format: physicochemical; settings: T 290.2 K; value = S2 × 10^1
[4] = from 1-Octanol/Buffer pH 7.4 System
[5] = from n-hexane/buffer pH 7.4 system

CC(C)NNC(=O)c1ccncc1 [IPN, N′-isopropyl isonicotinic hydrazide]
Molar solubility S2 × 10^3 in n-Hexane ([1]; T 293.2 K): 0.83 ± 0.03 × 10^3 (M) | Molar solubility S2 × 10^3 in n-Hexane ([1]; T 298.2 K): 1.07 ± 0.02 × 10^3 (M) | Molar solubility S2 × 10^3 in n-Hexane ([1]; T 303.2 K): 1.42 ± 0.03 × 10^3 (M) | Molar solubility S2 × 10^3 in n-Hexane ([1]; T 310.2 K): 2.03 ± 0.04 × 10^3 (M) | TΔSsol298.2 ([1]; n-hexane, 298.2 K): 4.3 ± 0.19 kcal/mol | ΔGsol298.2 ([1]; n-hexane, 298.2 K): 5.26 ± 0.096 kcal/mol | ζHsol ([1]; n-hexane, 298.2 K (first value of cell)): 69.0% | ΔHsol298.2/310.2 ([1]; n-hexane, 298.2 K and 310.2 K): 9.56 ± 0.22 kcal/mol | TΔSsol310.2 ([1]; n-hexane, 310.2 K): 4.49 ± 0.19 kcal/mol | ΔGsol310.2 ([1]; n-hexane, 310.2 K): 5.07 ± 0.096 kcal/mol | ζHsol ([1]; n-hexane, 310.2 K (second value of cell)): 68.0% | Association constant KC of IPN complex with HP-β-CD [2, 4]: 0.899 ± 0.022 | Association constant KC of IPN complex with M-β-CD [2, 4]: 0.479 ± 0.109 | α (parameter indicating the complex stoichiometry), IPN with HP-β-CD [2, 4]: 1.004 ± 0.014 | α (parameter indicating the complex stoichiometry), IPN with M-β-CD [2, 4]: 1.000 ± 0.065 | Association constant KC of IPN complex with HP-β-CD [2, 5]: 1.536 ± 0.128 | Association constant KC of IPN complex with M-β-CD [2, 5]: 1.311 ± 0.241 | α (parameter indicating the complex stoichiometry), IPN with HP-β-CD [2, 5]: 1.087 ± 0.076 | α (parameter indicating the complex stoichiometry), IPN with M-β-CD [2, 5]: 1.057 ± 0.143 | Molar solubility S2 × 10^1 in 1-Octanol [3]: 4.09 ± 0.08 × 10^1 (M)
